Test results reported in US11098063B2, “Diazabicyclic substituted imidazopyrimidines and their use for the treatment of breathing disorders” (Bayer Aktiengesellschaft, priority 2017, dated 2021).
pIC50: −log10 of the molar value.

Assays:
[1] = molecular target: human TASK-1 (Homo sapiens (Human), UniProt O14649); test: Inhibition of recombinant TASK-1 in stably transfected CHO cells (voltage-sensitive dye, KCl depolarization); type: cell-based; settings: depolarization by 40 mM potassium chloride
Experimental: (§1) B-2. Inhibition of Recombinant TASK-1 and TASK-3 In Vitro
(§2) The investigations on the inhibition of the recombinant TASK-1 and TASK-3 channels were conducted using stably transfected CHO cells. The compounds according to the invention were tested in this case by application of 40 mM potassium chloride in the presence of a voltage-sensitive dye according to the method described in detail in the following references [Whiteaker et al., Validation of FLIPR membrane potential dye for high-throughput screening of potassium channel modulators, J. Biomol. Screen. 6 (5), 305-312 (2001); Molecular Devices FLIPR Application Note: Measuring membrane potential using the FLIPR® membrane potential assay kit on Fluorometric Imaging Plate Reader (FLIPR®) systems, http://www.moleculardevices.com/reagents-supplies/assay-kits/ion-channels/flipr-membrane-potential-assay-kits]. The activity of the test substances was determined as their ability to inhibit a depolarization induced in the recombinant cells by 40 mM potassium chloride. The concentration which can block half of this depolarization is referred to as IC50.

[2] = molecular target: human TASK-3 (Homo sapiens (Human), UniProt Q9NPC2); test: Inhibition of recombinant TASK-3 in stably transfected CHO cells (voltage-sensitive dye, KCl depolarization); type: cell-based; settings: depolarization by 40 mM potassium chloride
Experimental: as §1, §2

Chain of human TASK-1 (O14649 whole entry): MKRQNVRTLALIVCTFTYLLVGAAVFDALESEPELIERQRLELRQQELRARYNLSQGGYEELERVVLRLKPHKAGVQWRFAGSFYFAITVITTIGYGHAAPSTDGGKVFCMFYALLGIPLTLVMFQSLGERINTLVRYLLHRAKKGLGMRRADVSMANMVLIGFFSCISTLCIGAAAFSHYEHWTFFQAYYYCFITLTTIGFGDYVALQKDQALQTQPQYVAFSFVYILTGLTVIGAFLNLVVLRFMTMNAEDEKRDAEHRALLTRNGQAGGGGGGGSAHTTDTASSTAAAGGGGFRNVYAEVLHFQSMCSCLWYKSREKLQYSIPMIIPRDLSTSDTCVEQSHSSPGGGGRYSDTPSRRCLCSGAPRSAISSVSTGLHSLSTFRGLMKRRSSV
Chain of human TASK-3 (Q9NPC2 whole entry): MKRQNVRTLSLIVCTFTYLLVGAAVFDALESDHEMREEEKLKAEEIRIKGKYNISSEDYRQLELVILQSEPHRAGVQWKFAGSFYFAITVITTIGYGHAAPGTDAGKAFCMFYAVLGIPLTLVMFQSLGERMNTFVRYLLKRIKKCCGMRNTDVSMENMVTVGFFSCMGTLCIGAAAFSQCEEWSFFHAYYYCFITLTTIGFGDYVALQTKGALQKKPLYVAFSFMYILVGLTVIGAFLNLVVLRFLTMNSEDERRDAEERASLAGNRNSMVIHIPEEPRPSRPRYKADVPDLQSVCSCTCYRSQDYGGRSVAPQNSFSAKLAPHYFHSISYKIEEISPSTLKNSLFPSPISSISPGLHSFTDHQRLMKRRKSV

| Structure (SMILES) | pIC50 [1] | pIC50 [2] |
| --- | --- | --- |
| CC(C)c1ccc(-c2nc3ncccn3c2CN2CC3CCC2CN3C(=O)OC(C)(C)C)cc1 (racemic) [Example 7, tert-Butyl 5-{[2-(4-isopropylphenyl)imidazo[1,2-a]pyrimidine-3-yl]methyl}-2,5-diazabicyclo[2.2.2]octane-2-carboxylate] | 5.07 | 6.24 |
| CC(c1c(-c2ccc(Cl)cc2)nc2ncccn12)N1CC2CCC(C1)N2C(=O)OC(C)(C)C (racemic) [Example 10, tert-Butyl 3-{1-[2-(4-chlorophenyl)imidazo[1,2-a]pyrimidin-3-yl]ethyl}-3,8-diazabicyclo[3.2.1]octane-8-carboxylate] | 5.66 | 6.89 |
| CC(C)(C)OC(=O)N1CC2CCC1CN2Cc1c(-c2ccc(Cl)cc2)nc2ncccn12 (single isomer, unassigned) [Example 4, tert-Butyl 5-{[2-(4-chlorophenyl)imidazo[1,2-a]pyrimidin-3-yl]methyl}-2,5-diazabicyclo[2.2.2]octane-2-carboxylate] | 6.33 | 7.01 |
| CC(C)(C)OC(=O)N1CC2CCC1CN2Cc1c(-c2ccc(Cl)cc2)nc2ncccn12 (single isomer, unassigned) [Example 5, tert-Butyl 5-{[2-(4-chlorophenyl)imidazo[1,2-a]pyrimidin-3-yl]methyl}-2,5-diazabicyclo[2.2.2]octane-2-carboxylate] | 4.77 | 5.89 |
| COc1ccc(Cl)c(C(=O)N2CC3CCC2CN3Cc2c(-c3ccc(Cl)cc3)nc3ncccn23)n1 (single isomer, unassigned) [Example 23, (3-Chloro-6-methoxypyridin-2-yl)(5-{[2-(4-chlorophenyl)imidazo[1,2-a]pyrimidin-3-yl]methyl}-2,5-diazabicyclo[2.2.2]oct-2-yl)methanone] | 5.80 | 7.00 |
| COc1ccc(F)c(C(=O)N2CC3CCC2CN3Cc2c(-c3ccc(Cl)cc3)nc3ncccn23)n1 (single isomer, unassigned) [Example 24, (5-{[2-(4-Chlorophenyl)imidazo[1,2-a]pyrimidin-3-yl]methyl}-2,5-diazabicyclo[2.2.2]oct-2-yl)(3-fluoro-6-methoxypyridin-2-yl)methanone] | 6.39 | 6.99 |
| COc1ccc(C)c(C(=O)N2CC3CCC2CN3Cc2c(-c3ccc(Cl)cc3)nc3ncccn23)n1 (single isomer, unassigned) [Example 25, (5-{[2-(4-Chlorophenyl)imidazo[1,2-a]pyrimidin-3-yl]methyl}-2,5-diazabicyclo[2.2.2]oct-2-yl)(6-methoxy-3-methylpyridin-2-yl)methanone] | 5.96 | 7.15 |
| CC(C)(C)OC(=O)N1C2COCC1CN(Cc1c(-c3ccc(Cl)cc3)nc3ncccn13)C2 [Example 1, tert-Butyl 7-{[2-(4-chlorophenyl)imidazo[1,2-a]pyrimidin-3-yl]methyl}-3-oxa-7,9-diazabicyclo[3.3.1]nonane-9-carboxylate] | 5.77 | 6.40 |
| CC(C)(C)OC(=O)N1C2CCC1CN(Cc1c(-c3ccc(Cl)cc3)nc3ncccn13)C2 [Example 6, tert-Butyl 3-{[2-(4-chlorophenyl)imidazo[1,2-a]pyrimidin-3-yl]methyl}-3,8-diazabicyclo[3.2.1]octane-8-carboxylate] | 5.85 | 7.39 |
| CC(C)(C)OC(=O)N1CC2CCC1CN2Cc1c(-c2ccc(Br)cc2)nc2ncccn12 (centres unmarked) [Example 11] | 5.60 | 7.80 |
| CC(C)(C)OC(=O)N1C2CCC1CN(Cc1c(-c3ccc(Br)cc3)nc3ncccn13)C2 [Example 12] | 6.66 | 7.89 |
| COc1cccc(C(=O)N2C3COCC2CN(Cc2c(-c4ccc(Cl)cc4)nc4ncccn24)C3)n1 [Example 13, (7-{[2-(4-Chlorophenyl)imidazo[1,2-a]pyrimidin-3-yl]methyl}-3-oxa-7,9-diazabicyclo[3.3.1]non-9-yl)(6-methoxypyridin-2-yl)methanone] | 5.82 | 7.48 |
| COc1ccc(Cl)c(C(=O)N2C3COCC2CN(Cc2c(-c4ccc(Cl)cc4)nc4ncccn24)C3)n1 [Example 14, (3-Chloro-6-methoxypyridin-2-yl)(7-{[2-(4-chlorophenyl)imidazo[1,2-a]pyrimidin-3-yl]methyl}-3-oxa-7,9-diazabicyclo[3.3.1]non-9-yl)methanone] | 5.12 | 6.77 |
| COc1ccc(F)c(C(=O)N2C3COCC2CN(Cc2c(-c4ccc(Cl)cc4)nc4ncccn24)C3)n1 [Example 15, (7-{[2-(4-Chlorophenyl)imidazo[1,2-a]pyrimidin-3-yl]methyl}-3-oxa-7,9-diazabicyclo[3.3.1]non-9-yl)(3-fluoro-6-methoxypyridin-2-yl)methanone] | 5.96 | 7.72 |
| CSc1cccc(C(=O)N2C3COCC2CN(Cc2c(-c4ccc(Cl)cc4)nc4ncccn24)C3)n1 [Example 16, (7-{[2-(4-Chlorophenyl)imidazo[1,2-a]pyrimidin-3-yl]methyl}-3-oxa-7,9-diazabicyclo[3.3.1]non-9-yl)[6-(methylsulfanyl)pyridin-2-yl]methanone] | 6.17 | 7.92 |
| O=C(C1CCCC1)N1C2COCC1CN(Cc1c(-c3ccc(Cl)cc3)nc3ncccn13)C2 [Example 17, (7-{[2-(4-Chlorophenyl)imidazo[1,2-a]pyrimidin-3-yl]methyl}-3-oxa-7,9-diazabicyclo[3.3.1]non-9-yl)(cyclopentyl)methanone] | 5.92 | 7.48 |
| COc1ccc(F)c(C(=O)N2C3COCC2CN(Cc2c(-c4ccc(C(C)C)cc4)nc4ncccn24)C3)n1 [Example 18, (3-Fluoro-6-methoxypyridin-2-yl)(7-{[2-(4-isopropylphenyl)imidazo[1,2-a]pyrimidin-3-yl]methyl}-3-oxa-7,9-diazabicyclo[3.3.1]non-9-yl)methanone] | 6.04 | 8.07 |
| COc1cccc(C(=O)N2C3CCC2CN(Cc2c(-c4ccc(Cl)cc4)nc4ncccn24)C3)n1 [Example 20, (3-{[2-(4-Chlorophenyl)imidazo[1,2-a]pyrimidin-3-yl]methyl}-3,8-diazabicyclo[3.2.1]oct-8-yl)(6-methoxypyridin-2-yl)methanone] | 6.80 | 7.42 |
| COc1ccc(F)c(C(=O)N2C3CCC2CN(Cc2c(-c4ccc(Cl)cc4)nc4ncccn24)C3)n1 [Example 22, (3-{[2-(4-Chlorophenyl)imidazo[1,2-a]pyrimidin-3-yl]methyl}-3,8-diazabicyclo[3.2.1]oct-8-yl)(3-fluoro-6-methoxypyridin-2-yl)methanone] | 6.47 | 8.28 |

| Structure (SMILES) | pIC50 [1] | pIC50 [2] |
| --- | --- | --- |
| O=C(c1ccccc1F)N1C2COCC1CN(Cc1c(-c3ccc(Cl)cc3)nc3ncccn13)C2 [Example 30] | 5.46 | 7.07 |
| COc1cccc(C(=O)N2C3COCC2CN(Cc2c(-c4ccc(Cl)cc4)nc4ncccn24)C3)c1 [Example 31] | 5.15 | 6.85 |
| O=C(c1ccccc1F)N1C2CCC1CN(Cc1c(-c3ccc(Cl)cc3)nc3ncccn13)C2 [Example 32] | 6.43 | 7.54 |
| CSc1cccc(C(=O)N2C3CCC2CN(Cc2c(-c4ccc(Cl)cc4)nc4ncccn24)C3)n1 [Example 33] | 6.72 | 6.89 |
| O=C(C1CCCC1)N1C2CCC1CN(Cc1c(-c3ccc(Cl)cc3)nc3ncccn13)C2 [Example 34] | 7.12 | 7.54 |
| COc1cccc(C(=O)N2C3CCC2CN(Cc2c(-c4ccc(Cl)cc4)nc4ncccn24)C3)c1 [Example 36] | 6.51 | 7.10 |
| O=C(C1CCCC1)N1CC2CCC1CN2Cc1c(-c2ccc(Cl)cc2)nc2ncccn12 (centres unmarked) [Example 37] | 5.82 | 6.85 |
| COc1cccc(C(=O)N2CC3CCC2CN3Cc2c(-c3ccc(Cl)cc3)nc3ncccn23)c1 (centres unmarked) [Example 38] | 5.02 | 6.49 |
| O=C(c1ccccc1F)N1CC2CCC1CN2Cc1c(-c2ccc(Cl)cc2)nc2ncccn12 (centres unmarked) [Example 39] | 5.85 | 6.80 |
| COc1cccc(C(=O)N2CC3CCC2CN3Cc2c(-c3ccc(Cl)cc3)nc3ncccn23)n1 (centres unmarked) [Example 40] | 5.24 | 6.68 |
| O=C(c1ccccc1F)N1CC2CCC1CN2Cc1c(-c2ccc(Cl)cc2)nc2ncccn12 (centres unmarked) [Example 42] | 6.00 | 6.47 |
| COc1cccc(C(=O)N2CC3CCC2CN3Cc2c(-c3ccc(Cl)cc3)nc3ncccn23)c1 (centres unmarked) [Example 43] | 6.00 | 6.49 |
| COc1cccc(C(=O)N2CC3CCC2CN3Cc2c(-c3ccc(Cl)cc3)nc3ncccn23)n1 (centres unmarked) [Example 44] | 6.00 | 6.72 |
| COc1ccc(Cl)c(C(=O)N2CC3CCC2CN3Cc2c(-c3ccc(Cl)cc3)nc3ncccn23)n1 (centres unmarked) [Example 45] | 5.74 | 6.92 |
| O=C(c1ncoc1C1CC1)N1C2COCC1CN(Cc1c(-c3ccc(Cl)cc3)nc3ncccn13)C2 [Example 46] | 5.12 | 6.85 |
| O=C(c1coc(C2CC2)n1)N1C2CCC1CN(Cc1c(-c3ccc(Cl)cc3)nc3ncccn13)C2 [Example 47] | 5.55 | 6.96 |
| Cc1ocnc1C(=O)N1C2CCC1CN(Cc1c(-c3ccc(Cl)cc3)nc3ncccn13)C2 [Example 48] | 6.40 | 7.64 |
| CC(C)c1ocnc1C(=O)N1C2CCC1CN(Cc1c(-c3ccc(Cl)cc3)nc3ncccn13)C2 [Example 49] | 6.59 | 7.92 |
